Results from PubChem BioAssay AID2060501 (Molecular Pharmacology Branch, DTP, NCI, 2025).

Test system: 282377-053-R-J1-PDC complex spheroids, viability
Test: Anticancer human tumor 282377-053-R-J1-PDC patient-derived colon adenocarcinoma cell line growth inhibition [GQUAD]
Settings: for IC50: curve of first compound; for viability, T/C: stronger effect = lower value
Procedure, shortened: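 Tumor cells were grown as complex spheroids with HUVEC endothelial cells and mesenchymal stem cells as stroma. G-quadruplex stabilizers were combined with targeted agents over half-log dilutions from near the clinical Cmax, or from 10 microM.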

[1] = second compound 0.0316 µM, first compound 0.0316 µM
[2] = second compound 0.0316 µM, first compound 0.1 µM
[3] = second compound 0.0316 µM, first compound 0.316 µM
[4] = second compound 0.0316 µM, first compound 1 µM
[5] = second compound 0.0316 µM, first compound 3.16 µM
[6] = second compound 0.0316 µM, first compound 10 µM
[7] = second compound 0.1 µM, first compound 0.0316 µM
[8] = second compound 0.1 µM, first compound 0.1 µM
[9] = second compound 0.1 µM, first compound 0.316 µM
[10] = second compound 0.1 µM, first compound 1 µM
[11] = second compound 0.1 µM, first compound 3.16 µM
[12] = second compound 0.1 µM, first compound 10 µM
[13] = second compound 0.316 µM, first compound 0.0316 µM
[14] = second compound 0.316 µM, first compound 0.1 µM
[15] = second compound 0.316 µM, first compound 0.316 µM
[16] = second compound 0.316 µM, first compound 1 µM
[17] = second compound 0.316 µM, first compound 3.16 µM
[18] = second compound 0.316 µM, first compound 10 µM
[19] = second compound 1 µM, first compound 0.0316 µM
[20] = second compound 1 µM, first compound 0.1 µM
[21] = second compound 1 µM, first compound 0.316 µM
[22] = second compound 1 µM, first compound 1 µM
[23] = second compound 1 µM, first compound 3.16 µM
[24] = second compound 1 µM, first compound 10 µM
[25] = second compound 3.16 µM, first compound 0.0316 µM
[26] = second compound 3.16 µM, first compound 0.1 µM
[27] = second compound 3.16 µM, first compound 0.316 µM
[28] = second compound 3.16 µM, first compound 1 µM
[29] = second compound 3.16 µM, first compound 3.16 µM
[30] = second compound 3.16 µM, first compound 10 µM
[31] = second compound 10 µM, first compound 0.0316 µM
[32] = second compound 10 µM, first compound 0.1 µM
[33] = second compound 10 µM, first compound 0.316 µM
[34] = second compound 10 µM, first compound 1 µM
[35] = second compound 10 µM, first compound 3.16 µM
[36] = second compound 10 µM, first compound 10 µM
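Note: spheroids exposed to compounds for 7 days before readout.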
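Throughout, for viability, T/C: percent of vehicle DMSO control viability with 100% = untreated-like growth.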

Compound: C#Cc1c(F)ccc2cc(O)cc(-c3ncc4c(N5CC6CCC(C5)N6)nc(OCC56CCCN5CC(F)C6)nc4c3F)c12 (stereo unspecified) + Cc1cnc(CNC(=O)c2c(=O)c3ccc(N4CCCN(C)CC4)nc3n3c2sc2ccccc23)cn1
- IC50 (second compound 0.0316 µM): > 10000 nM
- IC50 (second compound 0.1 µM): > 10000 nM
- IC50 (second compound 0.316 µM): > 10000 nM
- IC50 (second compound 1 µM): > 10000 nM
- IC50 (second compound 3.16 µM): 4140 nM
- IC50 (second compound 10 µM): < 31.6 nM
- viability, T/C [1]: 102%
- viability, T/C [2]: 87.4%
- viability, T/C [3]: 122%
- viability, T/C [4]: 83.2%
- viability, T/C [5]: 100%
- viability, T/C [6]: 94.7%
- viability, T/C [7]: 127%
- viability, T/C [8]: 109%
- viability, T/C [9]: 89.9%
- viability, T/C [10]: 86%
- viability, T/C [11]: 120%
- viability, T/C [12]: 93.5%
- viability, T/C [13]: 86.5%
- viability, T/C [14]: 102%
- viability, T/C [15]: 85.5%
- viability, T/C [16]: 77.1%
- viability, T/C [17]: 91.3%
- viability, T/C [18]: 83.9%
- viability, T/C [19]: 64.3%
- viability, T/C [20]: 47.6%
- viability, T/C [21]: 47.2%
- viability, T/C [22]: 59.2%
- viability, T/C [23]: 71.8%
- viability, T/C [24]: 58.5%
- viability, T/C [25]: 46.5%
- viability, T/C [26]: 53%
- viability, T/C [27]: 58.5%
- viability, T/C [28]: 52.2%
- viability, T/C [29]: 51.7%
- viability, T/C [30]: 44.1%
- viability, T/C [31]: 36.8%
- viability, T/C [32]: 40.3%
- viability, T/C [33]: 52.9%
- viability, T/C [34]: 46%
- viability, T/C [35]: 45.7%
- viability, T/C [36]: 37.8%

Compound: C=CCn1c(=O)c2cnc(Nc3ccc(N4CCN(C)CC4)cc3)nc2n1-c1cccc(C(C)(C)O)n1 + Cc1cnc(CNC(=O)c2c(=O)c3ccc(N4CCCN(C)CC4)nc3n3c2sc2ccccc23)cn1
- IC50 (second compound 0.0316 µM): 1590 nM
- IC50 (second compound 0.1 µM): 1470 nM
- IC50 (second compound 0.316 µM): 731 nM
- IC50 (second compound 1 µM): 651 nM
- IC50 (second compound 3.16 µM): 295 nM
- IC50 (second compound 10 µM): < 31.6 nM
- viability, T/C [1]: 109%
- viability, T/C [2]: 102%
- viability, T/C [3]: 107%
- viability, T/C [4]: 67.7%
- viability, T/C [5]: 24.1%
- viability, T/C [6]: 15.1%
- viability, T/C [7]: 115%
- viability, T/C [8]: 115%
- viability, T/C [9]: 99.6%
- viability, T/C [10]: 62.8%
- viability, T/C [11]: 24.6%
- viability, T/C [12]: 11.7%
- viability, T/C [13]: 102%
- viability, T/C [14]: 97.8%
- viability, T/C [15]: 73.4%
- viability, T/C [16]: 40.4%
- viability, T/C [17]: 22.3%
- viability, T/C [18]: 12.5%
- viability, T/C [19]: 75.5%
- viability, T/C [20]: 75.8%
- viability, T/C [21]: 65.1%
- viability, T/C [22]: 40.2%
- viability, T/C [23]: 22.6%
- viability, T/C [24]: 13.6%
- viability, T/C [25]: 55.7%
- viability, T/C [26]: 60.1%
- viability, T/C [27]: 45.4%
- viability, T/C [28]: 42%
- viability, T/C [29]: 26.2%
- viability, T/C [30]: 12.1%
- viability, T/C [31]: 44.4%
- viability, T/C [32]: 48.5%
- viability, T/C [33]: 43.1%
- viability, T/C [34]: 36.6%
- viability, T/C [35]: 1.31%
- viability, T/C [36]: 0.34%

Compound: CC(C)(O)C1CCC(Nc2ccc3ncc(-c4cccc(C(F)(F)F)c4)n3n2)CC1 (stereo unspecified) + Cc1cnc(CNC(=O)c2c(=O)c3ccc(N4CCCN(C)CC4)nc3n3c2sc2ccccc23)cn1
- IC50 (second compound 0.0316 µM): 1680 nM
- IC50 (second compound 0.1 µM): 910 nM
- IC50 (second compound 0.316 µM): 1330 nM
- IC50 (second compound 1 µM): 361 nM
- IC50 (second compound 3.16 µM): < 31.6 nM
- IC50 (second compound 10 µM): < 31.6 nM
- viability, T/C [1]: 96.9%
- viability, T/C [2]: 83.3%
- viability, T/C [3]: 93.2%
- viability, T/C [4]: 78.4%
- viability, T/C [5]: 12%
- viability, T/C [6]: 18.7%
- viability, T/C [7]: 113%
- viability, T/C [8]: 79.1%
- viability, T/C [9]: 68.8%
- viability, T/C [10]: 62.5%
- viability, T/C [11]: 16%
- viability, T/C [12]: 20.9%
- viability, T/C [13]: 77.9%
- viability, T/C [14]: 82.2%
- viability, T/C [15]: 77.9%
- viability, T/C [16]: 57.9%
- viability, T/C [17]: 22.4%
- viability, T/C [18]: 29.7%
- viability, T/C [19]: 62.1%
- viability, T/C [20]: 45.2%
- viability, T/C [21]: 46.5%
- viability, T/C [22]: 40.5%
- viability, T/C [23]: 7.32%
- viability, T/C [24]: 18.9%
- viability, T/C [25]: 45%
- viability, T/C [26]: 45%
- viability, T/C [27]: 42%
- viability, T/C [28]: 34.3%
- viability, T/C [29]: 0.13%
- viability, T/C [30]: 0.15%
- viability, T/C [31]: 34.2%
- viability, T/C [32]: 21.1%
- viability, T/C [33]: 12.3%
- viability, T/C [34]: 0.24%
- viability, T/C [35]: 0.89%
- viability, T/C [36]: 0.2%
